Values of other authors as cited in patent publication US20240010628A1, “METHODS OF MANUFACTURE OF R-MDMA” (Mind Medicine, Inc., priority 2022, published 2024).

How the values were obtained:
[1] = system: parkinsonian animal model
[2] = in vivo
5-HT2A receptors = 5-HT2A receptors (Homo sapiens, UniProt P28223)
DAT = DAT (Homo sapiens, UniProt Q01959)
SERT = SERT (Homo sapiens, UniProt P31645)
Chain of SERT (P31645 whole entry, species assumed): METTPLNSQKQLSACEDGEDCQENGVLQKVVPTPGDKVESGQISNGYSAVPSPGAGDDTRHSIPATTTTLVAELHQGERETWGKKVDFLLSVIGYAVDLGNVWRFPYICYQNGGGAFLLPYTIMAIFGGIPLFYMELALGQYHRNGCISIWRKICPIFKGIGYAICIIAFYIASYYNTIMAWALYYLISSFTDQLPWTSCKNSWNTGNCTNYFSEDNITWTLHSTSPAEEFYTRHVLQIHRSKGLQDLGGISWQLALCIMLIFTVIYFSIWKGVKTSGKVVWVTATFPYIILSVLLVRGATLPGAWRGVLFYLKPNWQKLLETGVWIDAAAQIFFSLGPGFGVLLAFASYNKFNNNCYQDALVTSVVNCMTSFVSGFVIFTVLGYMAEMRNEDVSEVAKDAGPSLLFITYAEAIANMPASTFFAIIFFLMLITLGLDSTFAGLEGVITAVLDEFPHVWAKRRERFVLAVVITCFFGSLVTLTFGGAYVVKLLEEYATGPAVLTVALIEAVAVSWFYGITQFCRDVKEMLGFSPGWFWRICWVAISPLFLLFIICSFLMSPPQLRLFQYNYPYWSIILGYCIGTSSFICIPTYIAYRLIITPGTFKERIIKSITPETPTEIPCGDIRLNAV

Chain of 5-HT2A receptors (P28223 whole entry): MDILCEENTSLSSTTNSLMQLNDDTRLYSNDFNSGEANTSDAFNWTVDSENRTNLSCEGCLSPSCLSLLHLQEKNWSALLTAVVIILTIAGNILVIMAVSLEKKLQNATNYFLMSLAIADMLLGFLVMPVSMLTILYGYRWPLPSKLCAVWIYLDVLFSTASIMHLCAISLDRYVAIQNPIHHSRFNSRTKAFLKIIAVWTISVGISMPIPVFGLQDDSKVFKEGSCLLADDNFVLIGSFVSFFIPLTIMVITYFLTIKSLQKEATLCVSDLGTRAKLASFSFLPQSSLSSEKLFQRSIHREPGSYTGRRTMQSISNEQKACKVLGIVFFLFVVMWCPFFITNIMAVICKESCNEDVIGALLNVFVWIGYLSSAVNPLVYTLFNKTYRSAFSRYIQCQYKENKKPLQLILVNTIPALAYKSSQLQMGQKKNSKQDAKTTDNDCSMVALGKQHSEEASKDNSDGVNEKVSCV
Chain of DAT (Q01959 whole entry, species assumed): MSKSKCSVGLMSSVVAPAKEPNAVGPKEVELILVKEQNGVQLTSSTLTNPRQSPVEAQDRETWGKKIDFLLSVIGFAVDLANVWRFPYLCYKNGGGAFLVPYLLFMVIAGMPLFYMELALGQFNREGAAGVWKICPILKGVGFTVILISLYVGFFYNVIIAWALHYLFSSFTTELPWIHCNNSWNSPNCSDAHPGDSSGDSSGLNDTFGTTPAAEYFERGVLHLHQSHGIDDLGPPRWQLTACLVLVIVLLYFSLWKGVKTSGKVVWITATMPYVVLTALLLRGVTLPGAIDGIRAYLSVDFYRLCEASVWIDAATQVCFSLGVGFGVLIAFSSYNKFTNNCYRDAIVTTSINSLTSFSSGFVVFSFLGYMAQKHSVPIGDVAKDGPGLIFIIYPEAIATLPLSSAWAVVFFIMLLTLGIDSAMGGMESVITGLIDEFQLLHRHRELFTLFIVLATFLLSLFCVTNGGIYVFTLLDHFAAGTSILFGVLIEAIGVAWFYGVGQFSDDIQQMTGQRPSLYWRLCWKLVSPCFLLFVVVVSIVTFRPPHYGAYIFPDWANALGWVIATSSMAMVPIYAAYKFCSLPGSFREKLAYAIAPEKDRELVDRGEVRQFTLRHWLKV

SMILES	severity of peak-dose dyskinesia / dyskinesia [1]	total duration of ON-time [1]	efficacy as a releaser of dopamine (dopamine)	duration of good ON-time [1]	hyperthermia [2]	selectivity for 5-HT2A receptors (5-HT2A receptors)	affinity for DAT (DAT)	affinity for SERT (SERT)
CNC(C)Cc1ccc2c(c1)OCO2 (racemic) [racemic MDMA, 3,4-Methylenedioxymethamphetamine, reference compound]	reducing dyskinesia	extending ON-time	–	–	–	–	–	–
CN[C@H](C)Cc1ccc2c(c1)OCO2 [R-MDMA, (R)-1-(benzo[d][1,3]dioxol-5-yl)-N-methylpropan-2-amine]	decreased	–	low efficacy	increased	does not produce hyperthermia	selective compound for 5-HT2A receptors	–	–
CN[C@@H](C)Cc1ccc2c(c1)OCO2 [S-MDMA, (S)-1-(benzo[d][1,3]dioxol-5-yl)-N-methylpropan-2-amine]	exacerbated	extended	–	–	–	–	moderate affinity	high affinity
